The source of these data is PubChem BioAssay (NCI).

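1) Cells in 96-well plates. 2) Compound, 48 h, 5 concentrations. 3) Linear interpolation between surrounding doses. 4) Unreached endpoint = highest concentration. TGI: concentration producing complete growth inhibition.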

The subject of one assay is HS 578T breast. Briefly: NCI-60 cell line screen, 48 h.
With `CCOC(=O)c1ccc(Nc2nc3ccc(C(F)(F)F)cc3nc2C(=O)OCC)cc1`, the TGI was over 100 µM.

Compound `O=C1C(C(O)(C(F)(F)F)C(F)(F)F)CCC1C(O)(C(F)(F)F)C(F)(F)F` (configuration not stated) returned a TGI of 51.9 µM.

For the compound `COc1ccc(C2c3cc4c(cc3OC(NCCO)C2C)OCO4)cc1` (configuration not stated), the TGI turned out to be 59.3 µM.

`COc1nc2c(N3CCCC3)nc(N3CCNCC3)nc2nc1NCc1ccccc1` had a TGI of 5.14 µM.

Regarding `COC(=O)[C@H](Cc1ccccc1)NC(=O)N(CCC#N)CCN(C(=O)N[C@@H](Cc1ccccc1)C(=O)OC)c1ccccc1`, the TGI was over 100 µM.

For the compound `COC1C(O)C(O[C@H]2CC[C@@]3(C)C(CC[C@@H]4[C@@H]3CC[C@]3(C)[C@@H](C(C)OC5OC(CO)C(O)C(O)C5O)CC[C@]43O)C2)OC(C)C1OC1OC(CO)C(O)C(O)C1O` (some centres not stated), the TGI is over 100 µM.

Regarding `Nc1nc(Nc2ccccc2)sc1C(=O)c1ccco1`, the TGI was determined as 40.8 µM.

Take `Cc1cc(NS(=O)(=O)c2ccc(NC(NC(=O)C(C(F)(F)F)C(F)(F)F)(C(F)(F)F)C(F)(F)F)cc2)no1`: the TGI is over 100 µM.

`O=S1SC(=S)C2C=CC=CC21` (configuration not stated): the TGI is over 100 µM.

As to `CC1(C)CC(C#Cc2ccccc2)CC(C)(C)N1O`, the TGI was determined as 44.9 µM.

`Cc1ccc(NC(=O)/C(Cc2nc3ccc([N+](=O)[O-])cc3[nH]c2=O)=N\NC(=O)C[n+]2ccccc2)c(C)c1` had a TGI of over 100 µM.

The compound `CCN1C(=O)C(=C/C=C/c2ccc(N(CC)CC)cc2)C(=O)N(CC)C1=S` had a TGI of over 100 µM.

Turning to `COc1ccc(NC(C)c2ccncc2)cc1` (configuration not stated), the TGI was over 100 µM.

The compound `O=C1C=CC(=O)C(CNc2ccc(C(=O)OCc3ccccc3)cc2)=C1` returned a TGI of 55.4 µM.

Consider `C/C(=C\CO)CC/C=C(\C)CNc1ccc([N+](=O)[O-])cc1`, for which the TGI amounted to 71.6 µM.

On to `CC(C)C1=C(O)C2=C(C(=O)C1=O)C1(C)CCCC(C)(C)C1C(O)C2OC=O` (configuration not stated), for which the TGI worked out at 98.8 µM.

In turn, `CC(C)[Si](OC/C(=C/COC(C)(C)C)[C@H]1CC=C(C(=O)c2ccccc2N2CN(C)C(=O)N(C)C2)C1)(C(C)C)C(C)C` showed a TGI of 13.2 µM.

Regarding `CCN(CCCl)c1cc(CN(C)C)cc(NC(=O)c2ccc(C(=O)Nc3cccc(CN(C)C)c3)cc2)c1`, the TGI is 0.671 µM.

In turn, `CCOC(=O)C1=CC(C)(C(=O)OCC)Nc2c(nc(N)[nH]c2=O)N1` (configuration not stated) showed a TGI of over 10 µM.

The next assay deals with SK-MEL-2 melanoma. In words: NCI-60 cell line screen, 48 h.
As to `COc1cc2[nH]c(-c3ccccc3)cc(=O)c2c(OC)c1OC`, the TGI was over 100 µM.

The compound `CCOP(=O)(OCC)OC1CC(n2cc(C)c(=O)n(C)c2=O)OC1CO[Si](C)(C)C(C)(C)C` (configuration not stated) had a TGI of over 100 µM.

Turning to `O=C1CS(=O)(=O)C(c2cccc(Oc3ccccc3)c2)N1c1cc(Cl)ccc1Cl` (configuration not stated), the TGI was determined as 30.2 µM.

`Nc1ccc(-c2nn3c(COc4ccc(Cl)cc4)nnc3s2)cc1` came in with a TGI of over 100 µM.

Take `COP(=O)(OC)C(Nc1ccc(Cc2ccc(NC(c3ccco3)P(=O)(OC)OC)cc2)cc1)c1ccco1` (configuration not stated): the TGI came out at 35.7 µM.

Turning to `O=C(CC(=O)Nc1ccccc1)NNC(c1cc(N=Nc2ccc(Br)cc2)ccc1O)P(O)O` (configuration not stated), the TGI was over 10 µM.

Turning to `O=C1C(C(O)(C(F)(F)F)C(F)(F)F)CCC1C(O)(C(F)(F)F)C(F)(F)F` (configuration not stated), the TGI is 11 µM.

For `COc1ccc(C2c3cc4c(cc3OC(NCCO)C2C)OCO4)cc1` (configuration not stated), the TGI is 50.8 µM.

As for `COc1nc2c(N3CCCC3)nc(N3CCNCC3)nc2nc1NCc1ccccc1`, the TGI amounted to 3.11 µM.

The compound `COC(=O)[C@H](Cc1ccccc1)NC(=O)N(CCC#N)CCN(C(=O)N[C@@H](Cc1ccccc1)C(=O)OC)c1ccccc1` came in with a TGI of 39.3 µM.

Compound `COC1C(O)C(O[C@H]2CC[C@@]3(C)C(CC[C@@H]4[C@@H]3CC[C@]3(C)[C@@H](C(C)OC5OC(CO)C(O)C(O)C5O)CC[C@]43O)C2)OC(C)C1OC1OC(CO)C(O)C(O)C1O` (some centres not stated) showed a TGI of over 100 µM.

In the case of `Nc1nc(Nc2ccccc2)sc1C(=O)c1ccco1`, the TGI was 36.7 µM.

In the case of `Cc1cc(NS(=O)(=O)c2ccc(NC(NC(=O)C(C(F)(F)F)C(F)(F)F)(C(F)(F)F)C(F)(F)F)cc2)no1`, the TGI was over 100 µM.

On to `O=S1SC(=S)C2C=CC=CC21` (configuration not stated), for which the TGI was over 100 µM.

`CC1(C)CC(C#Cc2ccccc2)CC(C)(C)N1O` returned a TGI of 43.6 µM.

As for `Cc1ccc(NC(=O)/C(Cc2nc3ccc([N+](=O)[O-])cc3[nH]c2=O)=N\NC(=O)C[n+]2ccccc2)c(C)c1`, the TGI is over 100 µM.

The compound `CCN1C(=O)C(=C/C=C/c2ccc(N(CC)CC)cc2)C(=O)N(CC)C1=S` registered a TGI of over 100 µM.

`COc1ccc(NC(C)c2ccncc2)cc1` (configuration not stated) displayed a TGI of over 100 µM.

As for `O=C1C=CC(=O)C(CNc2ccc(C(=O)OCc3ccccc3)cc2)=C1`, the TGI turned out to be 30 µM.

Turning to `C/C(=C\CO)CC/C=C(\C)CNc1ccc([N+](=O)[O-])cc1`, the TGI was determined as 79.5 µM.

In the case of `CC(C)C1=C(O)C2=C(C(=O)C1=O)C1(C)CCCC(C)(C)C1C(O)C2OC=O` (configuration not stated), the TGI was determined as 28.6 µM.

`CC(C)[Si](OC/C(=C/COC(C)(C)C)[C@H]1CC=C(C(=O)c2ccccc2N2CN(C)C(=O)N(C)C2)C1)(C(C)C)C(C)C` came in with a TGI of 28.9 µM.

Compound `CCN(CCCl)c1cc(CN(C)C)cc(NC(=O)c2ccc(C(=O)Nc3cccc(CN(C)C)c3)cc2)c1` showed a TGI of 1.61 µM.

As to `CCOC(=O)C1=CC(C)(C(=O)OCC)Nc2c(nc(N)[nH]c2=O)N1` (configuration not stated), the TGI was over 10 µM.

The test system of a further assay is A498 renal. In words: NCI-60 cell line screen, 48 h.
For `COc1cc2[nH]c(-c3ccccc3)cc(=O)c2c(OC)c1OC`, the TGI is over 100 µM.

`Cc1cc(C)nc(NS(=O)(=O)c2ccc(NC(=O)c3cccc4c(NNc5ccc(S(=O)(=O)N=C(N)N)cc5)c5ccccc5nc34)cc2)n1` returned a TGI of over 50 µM.

The compound `O=C(CC(C(=O)c1ccco1)c1ccco1)c1ccco1` (configuration not stated) showed a TGI of over 100 µM.

Consider `COP(=O)(OC)C(Nc1ccc(Cc2ccc(NC(c3ccco3)P(=O)(OC)OC)cc2)cc1)c1ccco1` (configuration not stated), for which the TGI is 56 µM.

In the case of `O=C(CC(=O)Nc1ccccc1)NNC(c1cc(N=Nc2ccc(Br)cc2)ccc1O)P(O)O` (configuration not stated), the TGI amounted to 8.72 µM.

In turn, `CCOC(=O)C1CCC(=O)N1C(=O)c1ccccc1Cl` (configuration not stated) yielded a TGI of over 100 µM.

As for `CCOC(=O)c1ccc(Nc2nc3ccc(C(F)(F)F)cc3nc2C(=O)OCC)cc1`, the TGI was over 100 µM.

The compound `O=C1C(C(O)(C(F)(F)F)C(F)(F)F)CCC1C(O)(C(F)(F)F)C(F)(F)F` (configuration not stated) returned a TGI of 6.23 µM.

In turn, `COc1ccc(C2c3cc4c(cc3OC(NCCO)C2C)OCO4)cc1` (configuration not stated) displayed a TGI of 48.8 µM.

`COC(=O)[C@H](Cc1ccccc1)NC(=O)N(CCC#N)CCN(C(=O)N[C@@H](Cc1ccccc1)C(=O)OC)c1ccccc1` registered a TGI of 39.8 µM.

Take `COC1C(O)C(O[C@H]2CC[C@@]3(C)C(CC[C@@H]4[C@@H]3CC[C@]3(C)[C@@H](C(C)OC5OC(CO)C(O)C(O)C5O)CC[C@]43O)C2)OC(C)C1OC1OC(CO)C(O)C(O)C1O` (some centres not stated): the TGI was over 100 µM.

`Nc1nc(Nc2ccccc2)sc1C(=O)c1ccco1`: the TGI was 39.6 µM.

The compound `O=S1SC(=S)C2C=CC=CC21` (configuration not stated) displayed a TGI of over 100 µM.

Regarding `COc1ccc(NC(C)c2ccncc2)cc1` (configuration not stated), the TGI is over 100 µM.

Compound `O=C1C=CC(=O)C(CNc2ccc(C(=O)OCc3ccccc3)cc2)=C1` returned a TGI of 23.5 µM.

On to `CC(C)C1=C(O)C2=C(C(=O)C1=O)C1(C)CCCC(C)(C)C1C(O)C2OC=O` (configuration not stated), for which the TGI was found to be 35.1 µM.

In turn, `CC(C)[Si](OC/C(=C/COC(C)(C)C)[C@H]1CC=C(C(=O)c2ccccc2N2CN(C)C(=O)N(C)C2)C1)(C(C)C)C(C)C` registered a TGI of 34.5 µM.

`CCN(CCCl)c1cc(CN(C)C)cc(NC(=O)c2ccc(C(=O)Nc3cccc(CN(C)C)c3)cc2)c1`: the TGI turned out to be 7.33 µM.

Compound `CCOC(=O)C1=CC(C)(C(=O)OCC)Nc2c(nc(N)[nH]c2=O)N1` (configuration not stated) came in with a TGI of over 10 µM.
